How the values were obtained:
LoVo cells = experiment: Pearson correlation between oil components and cytotoxic activity; parameters: species or system human; settings: P. lentiscus oils / LoVo cells
Procedure: The Pearson correlation and linear regression analyzes between the oil components and biological activity was also determined. To the scope all data were collected in a data base and analysed by the GraphPad Prism Version 3.0 statistical software to identify substances directly responsible of biological activity.

[1] = tested on: transplanted hamster pancreatic tumors; settings: cited from earlier work

SMILES	Pearson correlation r between oil component and cytotoxic activity (LoVo cells)	growth of transplanted tumors relative to controls [1]
C=C1CC[C@H]2O[C@]2(C)CC[C@@H]2[C@@H]1CC2(C)C [Caryophyllene Oxide]	0.8355	
C=C(C)[C@@H]1CC=C(CO)CC1 [perillyl alcohol]		less than half that of controls
CC(=O)OC1CC2CCC1(C)C2(C)C (stereo not shown) [Bornyl Acetate]	0.8693	
Cc1ccc(C(C)C)cc1 [Para cymene, Para Cymene]	−0.8621	

Reference: patent US20050163876A1, “Cancer treatment using natural plant products or essential oils or components from some pistacia species” (DATA MEDICA PADOVA S.p.A., priority 2003, published 2005)
